# Tests used:
# Format in all cases: in vivo
# [1] = test system: splenocytes of (NZB×NZW)F1 mice; assay: Cytokine pattern in supernatants of splenocyte cultures of treated (NZB×NZW)F1 mice (ELISA); conditions: end of treatment (10 weekly s.c. injections, 300 μg)
# Description: Induction and treatment of experimental SLE. In order to induce experimental SLE, BALB/c mice were immunized with 1-2 μg of the human mAb 16/6Id and boosted 3 weeks later. For the prevention of experimental SLE, mice were given hCDR1 or hCDR3 (mCDR1 or revmCDR1 as control peptide in Example 12) intravenously (i.v.) or s.c. concomitant with the immunization, and were injected weekly thereafter for 5 weeks. Treatment of an established disease started three and a half months following disease induction with the 16/6Id, when clinical manifestations were already observed. In Example 12, mice received 10 weekly injections (i.v. or s.c.) of mCDR1 or revmCDR1 at a dose of 100 μg/mouse. Prevention and treatment of SLE-like disease in (NZB×NZW)F1 mice with the hCDR1 or mCDR1 peptide. For prevention of SLE, mice at the age of 2 months, before disease manifestations are observed, were injected s.c. with hCDR1 (or mCDR1 in Example 12, 250 μg/mouse) once a week for 10 weeks. To treat an established disease, mice at the age of 5-7 months were injected with hCDR1 (in Example 12, mCDR1 s.c., 250 μg/mouse) once a week for 10 weeks. Proliferative Responses. PBL were isolated from heparinized venous blood by Ficoll-Hypaque (Pharmacia) density-gradient centrifugation. […] Results are expressed as the mean thymidine incorporation in counts per minute (CPM) of triplicate culture±SD, or as stimulation index (S.I.; the ratio of mean CPM at the optimal concentration of the human 16/6Id to the mean CPM in the presence of medium alone). […] TGF-β was determined by an ELISA. […] The substrate solution used was TMB color Reagent (Helix Diagnostics, West Sacramento, Calif.), and enzyme activity was evaluated by using 570- and 630-nm filters. […] Proteinuria was measured semiquantitatively by using Combistix kit (Ames Division, Bayer Diagnostics, Newbury, U.K.). White blood cells (WBC, for leukopenia) were counted after a 10-fold dilution of heparinized blood in distilled water containing 1% acetic acid (vol/vol). […]
# BALB/c mice = assay: Treatment of 16/6Id-induced experimental SLE in BALB/c mice; conditions: for mice with immune complex deposits in kidneys: 7 months after booster, untreated 9/10; for Anti-dsDNA O.D. (1:50), Mean ± SD: 16/6Id injected 1.1 ± 0.6; for Anti-dsDNA antibodies at a dilution of: 1:250, Mean ± SD: 16/6Id alone 1.16 ± 0.37; for Intensity of ICD In kidneys, Mean ± SD: 16/6Id alone 1.86 ± 0.38; for Anti-16/6 Id antibodies at a dilution of 1:1000, Mean ± SD: 16/6Id alone 2.55 ± 0.09; for Anti-dsDNA antibodies 1:1250, Mean ± SD: 16/6Id alone 0.47 ± 0.3; for Anti-16/6 Id antibodies 1:10000, Mean ± SD: 16/6Id alone 0.89 ± 0.1; for Intensity of ICD in kidneys, Mean ± SD: 16/6Id alone 1.6 ± 0.55
# Description: Induction and treatment of experimental SLE. In order to induce experimental SLE, BALB/c mice were immunized with 1-2 μg of the human mAb 16/6Id and boosted 3 weeks later. For the prevention of experimental SLE, mice were given hCDR1 or hCDR3 (mCDR1 or revmCDR1 as control peptide in Example 12) intravenously (i.v.) or s.c. concomitant with the immunization, and were injected weekly thereafter for 5 weeks. Treatment of an established disease started three and a half months following disease induction with the 16/6Id, when clinical manifestations were already observed. In Example 12, mice received 10 weekly injections (i.v. or s.c.) of mCDR1 or revmCDR1 at a dose of 100 μg/mouse. Prevention and treatment of SLE-like disease in (NZB×NZW)F1 mice with the hCDR1 or mCDR1 peptide. For prevention of SLE, mice at the age of 2 months, before disease manifestations are observed, were injected s.c. with hCDR1 (or mCDR1 in Example 12, 250 μg/mouse) once a week for 10 weeks. To treat an established disease, mice at the age of 5-7 months were injected with hCDR1 (in Example 12, mCDR1 s.c., 250 μg/mouse) once a week for 10 weeks. Proliferative Responses. PBL were isolated from heparinized venous blood by Ficoll-Hypaque (Pharmacia) density-gradient centrifugation. All assays were performed, in triplicate, in flat-bottomed microtiter plates (Falcon, Becton Dickinson, Oxmard, Calif., USA) in which 2×10^5 PBL were cultured in enriched RPMI-1640 as described (Dayan et al., 2000). The PBL were exposed to various concentrations (0.1-40 μg/well) of the human anti-DNA 16/6Id mAb with and without the addition of the various CDR-based peptides at a concentration of at least 10-fold excess over that of the 16/6Id. Phytohemagglutinin (PHA; 2 μg/well) was used as a control for culture conditions at each experiment. The cultures were incubated in 7.5% CO2 at 37° C. for 6 days. Eighteen hours before the cells were harvested, [^3H]-thymidine (0.5μ Ci of 5 Ci/mmol) (Nuclear Research Center, Negev, Israel) was added to all cultures. Results are expressed as the mean thymidine incorporation in counts per minute (CPM) of triplicate culture±SD, or as stimulation index (S.I.; the ratio of mean CPM at the optimal concentration of the human 16/6Id to the mean CPM in the presence of medium alone). A S.I.≧2 was considered a positive response (Dayan et al., 2000). Inhibition (the ratio of mean CPM in the presence of the 16/6Id and various CDR-based peptides to the mean CPM with the 16/6Id without the CDR-based peptide) above 50% was considered positive. Induction of Cytokine Production. Mice that were immunized with the human 16/6Id mAb and either treated or not with the CDR-based peptide, were killed at different periods during or after treatment with the peptide. Splenocytes and lymph node cells (LNC) were harvested and incubated (5×10^6/ml) in the presence of the 16/6Id. Supernatants were collected after 48 and 72 h. Assessment of Cytokines in the Supernatants. Supernatants were collected 48 hours following the initiation of the cultures and stored at −70° C. Measurements of IL-2, IL-10, IFN-γ, and TNF-α were performed by ELISA by using the relevant standards, capture and detecting Abs (Pharmingen) according to the manufacturer's instructions. TGF-β was determined by an ELISA. Briefly, plates were coated with the recombinant human TGF-β1 sRIII/Fc chimera (R & D Systems Inc., Minneapolis, Minn., USA), and the second Ab used was the biotinylated anti-human TGF-β1 antibody (R & D Systems Inc.). The substrate solution used was TMB color Reagent (Helix Diagnostics, West Sacramento, Calif.), and enzyme activity was evaluated by using 570- and 630-nm filters. Detection of SLE-Associated Clinical and Pathological Manifestations. Proteinuria was measured semiquantitatively by using Combistix kit (Ames Division, Bayer Diagnostics, Newbury, U.K.). White blood cells (WBC, for leukopenia) were counted after a 10-fold dilution of heparinized blood in distilled water containing 1% acetic acid (vol/vol). […]
# (NZB×NZW)F1 mice = assay: Transfer of splenocytes of peptide-treated mice into (NZB×NZW)F1 mice with full-blown disease
# From the text: It was of importance to investigate whether the beneficial effects of treatment with hCDR1, that are manifested by the down-regulation of disease manifestations, can be transferred by spleen cells of treated mice. To this end, we have performed an experiment in which 8-month old (NZB×NZW)F1 mice, that suffer already from the full-blown lupus-like disease, were divided into 2 groups. Group 1 was not treated and mice of group 2 were transferred with 20×10^6 spleen cells of 3-month old (NZB×NZW)F1 mice that were injected 3 times (s.c., every other day) with 300 μg/mouse of hCDR1. All splenocytes were injected intraperitoneally. Mice were tested for anti-dsDNA autoantibody production, disease manifestations, and were sacrificed 4 weeks after cell transfer.
# The experiment was repeated a few more times using revhCDR1 as control.
# [2] = Table 11, 200 μg/mouse for 10 weeks
# [3] = Table 11, 300 μg/mouse for 10 weeks
# [4] = Table 11, 400 μg/mouse for 10 weeks
sequence,measurement,setting,value
"GYYWSWIRQPPGKGEEWIG (Human) [hCDR1, 19-mer peptide based on the CDR1 of the heavy chain of the human 16/6Id mAb]",INF-γ in supernatants of Con A-stimulated splenocytes,[1]; FIG. 13A,down-regulated
same,TGF-β in supernatants of non-stimulated splenocytes,[1]; FIG. 13C,increased secretion
same,IL-10 in supernatants of Con A-stimulated splenocytes,"[1]; to a lesser extent, FIG. 13B",down-regulated
same,mice with immune complex deposits in kidneys,BALB/c mice; 100 μg/mouse,3/10
same,mice with immune complex deposits in kidneys,BALB/c mice; 300 μg/mouse for 10 weeks,2/9
same,"Proteinuria g/l, Mean ± SD","BALB/c mice; Table 10, 100 μg, end of treatment, 16/6Id injected 0.65 ± 0.36",0.3 ± 0.02 g/L
same,"Anti-dsDNA O.D. (1:50), Mean ± SD","BALB/c mice; Table 10, 100 μg, end of treatment",0.3 ± 0.2 O.D.
same,"WBC/mm^3, Mean ± SD","BALB/c mice; Table 10, 100 μg, end of treatment, 16/6Id injected 3260 ± 920",6090 ± 2160 /mm^3
same,"Proteinuria g/l, Mean ± SD","BALB/c mice; Table 10, 300 μg, end of treatment, 16/6Id injected 0.65 ± 0.36",0.34 ± 0.25 g/L
same,"Anti-dsDNA O.D. (1:50), Mean ± SD","BALB/c mice; Table 10, 300 μg, end of treatment",0.55 ± 0.3 O.D.
same,"WBC/mm^3, Mean ± SD","BALB/c mice; Table 10, 300 μg, end of treatment, 16/6Id injected 3260 ± 920",5890 ± 2660 /mm^3
same,"Proteinuria g/l, Mean ± SD","BALB/c mice; Table 11, 200 μg/mouse for 10 weeks, 16/6Id alone 0.5 ± 0.34",0.13 ± 0.16 g/L
same,"Anti-dsDNA antibodies at a dilution of: 1:250, Mean ± SD",BALB/c mice; [2],0.69 ± 0.39
same,"Intensity of ICD In kidneys, Mean ± SD",BALB/c mice; [2],0.57 ± 0.97
same,"Anti-16/6 Id antibodies at a dilution of 1:1000, Mean ± SD",BALB/c mice; [2],2.7 ± 0.12
same,"WBC/mm^3, Mean ± SD","BALB/c mice; Table 11, 200 μg/mouse for 10 weeks, 16/6Id alone 2871 ± 1205",5625 ± 1659 /mm^3
same,"Proteinuria g/l, Mean ± SD","BALB/c mice; Table 11, 300 μg/mouse for 10 weeks, 16/6Id alone 0.5 ± 0.34",0.16 ± 0.16 g/L
same,"Anti-dsDNA antibodies at a dilution of: 1:250, Mean ± SD",BALB/c mice; [3],0.45 ± 0.24
same,"Intensity of ICD In kidneys, Mean ± SD",BALB/c mice; [3],0.75 ± 0.71
same,"Anti-16/6 Id antibodies at a dilution of 1:1000, Mean ± SD",BALB/c mice; [3],2.8 ± 0.11
same,"WBC/mm^3, Mean ± SD","BALB/c mice; Table 11, 300 μg/mouse for 10 weeks, 16/6Id alone 2871 ± 1205",4677 ± 1508 /mm^3
same,"Proteinuria g/l, Mean ± SD","BALB/c mice; Table 11, 400 μg/mouse for 10 weeks, 16/6Id alone 0.5 ± 0.34",0.11 ± 0.15 g/L
same,"Anti-dsDNA antibodies at a dilution of: 1:250, Mean ± SD",BALB/c mice; [4],0.8 ± 0.39
same,"Intensity of ICD In kidneys, Mean ± SD",BALB/c mice; [4],0.71 ± 0.76
same,"Anti-16/6 Id antibodies at a dilution of 1:1000, Mean ± SD",BALB/c mice; [4],2.75 ± 0.1
same,"WBC/mm^3, Mean ± SD","BALB/c mice; Table 11, 400 μg/mouse for 10 weeks, 16/6Id alone 2871 ± 1205",4012 ± 1421 /mm^3
same,"Anti-dsDNA antibodies 1:1250, Mean ± SD","BALB/c mice; Table 12, 200 μg/mouse weekly",0.23 ± 0.1
same,"Proteinuria g/l, Mean ± SD","BALB/c mice; Table 12, 200 μg/mouse weekly, 16/6Id alone 0.58 ± 0.34",0.17 ± 0.15 g/L
same,"Anti-16/6 Id antibodies 1:10000, Mean ± SD","BALB/c mice; Table 12, 200 μg/mouse weekly",0.96 ± 0.2
same,"Intensity of ICD in kidneys, Mean ± SD","BALB/c mice; Table 12, 200 μg/mouse weekly",1 ± 0.63
same,"WBC/mm^3, Mean ± SD","BALB/c mice; Table 12, 200 μg/mouse weekly, 16/6Id alone 2800 ± 300",4900 ± 800 /mm^3
same,"Anti-dsDNA antibodies 1:1250, Mean ± SD","BALB/c mice; Table 12, 300 μg/mouse weekly",0.2 ± 0.1
same,"Proteinuria g/l, Mean ± SD","BALB/c mice; Table 12, 300 μg/mouse weekly, 16/6Id alone 0.58 ± 0.34",0.085 ± 0.01 g/L
same,"Anti-16/6 Id antibodies 1:10000, Mean ± SD","BALB/c mice; Table 12, 300 μg/mouse weekly",0.93 ± 0.1
same,"Intensity of ICD in kidneys, Mean ± SD","BALB/c mice; Table 12, 300 μg/mouse weekly",0.5 ± 0.5
same,"WBC/mm^3, Mean ± SD","BALB/c mice; Table 12, 300 μg/mouse weekly, 16/6Id alone 2800 ± 300",5800 ± 300 /mm^3
same,Proteinuria g/L ± SEM,"(NZB×NZW)F1 mice; Table 13, recipients of 20 × 10^6 spleen cells from mice treated 3 times s.c. with 300 μg/mouse, non-treated 15.07 ± 4.92",0.97 ± 0.67 g/L
same,I.C.D ± SEM,"(NZB×NZW)F1 mice; Table 13, recipients of 20 × 10^6 spleen cells from treated mice, non-treated 2.25 ± 0.47",0.75 ± 0.47
same,I.C.D ± SEM,"(NZB×NZW)F1 mice; Table 14 (repeat experiment), recipients of 20 × 10^6 spleen cells from treated mice, non-treated 2.3 ± 0.26",1.33 ± 0.35
same,Proteinuria g/L ± SEM,"(NZB×NZW)F1 mice; Table 14 (repeat experiment), recipients of 20 × 10^6 spleen cells from treated mice, non-treated 10.9 ± 3.05",2.91 ± 1.6 g/L
same,levels of anti-DNA antibodies,"(NZB×NZW)F1 mice; transfer of cells of treated mice, 4 weeks after cell transfer",mild reduction
